What was measured:
[1] = rats after transient middle cerebral artery occlusion; cited from earlier work
[2] = test system: hPLA2-II-induced neuronal cell death; assay: MTT reduction assay of neuronal survival after hPLA2-II treatment; type: cell-based, Sprague-Dawley rat
Method: (§1) According to a method disclosed in Neurosci. Lett. 203, 175-178 Ueda K. et al, Neuronal cultures were prepared from cerebral cortex of 19-day-old Sprague-Dawley rat embryos. The cerebral cortices were dissociated in isotonic buffer (137 mM NaCl, 5.4 mM KCl, 0.17 mM Na2HPO4, 0.22 mM KH2PO4, 5.5 mM Glucose, 59 mM Sucrose; volume of each buffer is 25 ml) with 4 mg/ml trypsin and 0.4 mg/ml deoxyribonuclease I. Cells were plated at a density of 2.5×10^5 cells/cm^2 on poly-L-lysine coated dishes in conditioning medium, Leibovitz's L-15 medium supplemented with 5% fetal calf serum and 5% horse serum. Culture medium was exchanged for conditioning medium containing 0.1 mM arabinosylcytosine C on day 1 after plating. Cultured neurons were used for the experiments on day 2 of culture.
For assessment of neurotoxicity of hPLA2-II according to a method disclosed in Neurosci. […] Absorbance at 570 nm were measured with a microplate reader.
[…] MTT reducing activity was determined 48 hr after hPLA2-II-treatment.
At the indicated time after the treatment with hPLA2-II (1 μM), the compound prepared in Example 2 (final concentration=10 μM) was added to the culture medium. Data are expressed as mean±SEM values (n=4). *P<0.05, **P<0.01, compared with vehicle-treated conditions by ANOVA followed by Dunnett's test. […]

cortical neurons = assay: Ultrastructural changes in cortical neurons after hPLA2-II treatment (electron microscope); type: cell-based, Sprague-Dawley rat; settings: treated for 48 h
Method: as §1
Cells were treated with hPLA2-II for 48 h, and fixed in situ in 1-5% (especially 2.5%) glutaraldehyde in PBS for 2 h at 4° C. and post-fixed in 0.5-2% (especially 1% osmium tetraoxide). To increase contrast, cells were double-fixed in saturated thiocarbohydrazide-osmium. Afterwards, samples were dehydrated using a graded series of ethanol from 50-100%. Tissue culture dishes were embedded in Araldite or Epoxy resin (especially Epon 812), cured in vacuo for 48 h at 60-70° C. and sectioned. […]

CCN(CC)CCCC(C)Nc1c2ccc(Cl)cc2nc2ccc(OC)cc12 (centres unmarked) [quinacrine]
infarct-size [1]: reduces infarct-size

CCc1c(C(=O)C(N)=O)c2c(OCC(=O)O)cccc2n1Cc1ccccc1 [Example 1, [[3-(2-Amino-1,2-dioxoethyl)-2-ethyl-1-(phenylmethyl)-1H-indol-4-yl]oxy]acetic acid]
suppression of hPLA2-II-induced neuronal death (MTT reducing activity), co-treatment ([2]; 3 μM hPLA2-II, 48 well-cultured neuron, FIG. 4): suppressed neuronal death completely depending on its concentration

CCc1c(C(=O)C(N)=O)c2c(OCC(=O)O)cccn2c1Cc1ccccc1-c1ccccc1 [Example 2, (8-(Carboxymethyloxy)-2-ethyl-3-(o-phenylbenzyl)indolizin-1-yl)glyoxylamide]
time after hPLA2-II treatment within which post-treatment with compound suppressed neuronal death completely ([2]; 1 μM hPLA2-II, compound added at 10 μM final concentration at indicated time after hPLA2-II, FIG. 3): ≤ 10 h

B1: hPLA2-II: human PLA2-II, used to induce neuronal death in cultured cortical neurons (protein, UniProt P14555 21-144, looked up)
Phospholipase A2, membrane …: NLVNFHRMIKLTTGKEAALSYGFYGCHCGVGGRGSPKDATDRCCVTHDCCYKRLEKRGCGTKFLSYKFSNSGSRITCAKQDSCRSQLCECDKAAATCFARNKTTYNKKYQYYSNKHCRGSTPRC
morphology of neurons (cell bodies, neurites) after hPLA2-II treatment (cortical neurons; compared with untreated neurons): shrank cell bodies and lost their neurites
ultrastructural changes of neurons after hPLA2-II treatment (cortical neurons; electron microscope, compared with untreated cells, FIG. 1B): condensation and fragmentation of nuclear chromatin, lost of intracellular organelle other than mitochondria and blebbing of plasma membranes
